Reference: US20210346459A1, “Application of Dalargin for the prevention of VRIs and prevention of the development of complications during VRIs” (priority 2020, published 2021)
In brackets after ≈: the same amount, converted by molar mass. Where two headings read alike, the source gives them in different places. Marks after values point to notes of the source that are not given here.

How the values were obtained:
human adenovirus 5 [1] = tested on: human adenovirus 5
in vitro = settings: African green monkey
human adenovirus 5 [2] = experiment: organism not typed; settings: Vero
[3] = tested on: influenza virus A/Puerto Rico/8/34 (H1N1); format: in vivo, Balb/c mice; settings: Group 2: Tamiflu 20 mg/kg once a day intragastrically
[4] = tested on: influenza virus A/California/04/2009; format: in vivo, mice
mu receptors = mu receptors (Homo sapiens, UniProt P35372); settings: metabolite of Dalargin; cited from earlier work
MDCK = experiment: 50% cytotoxic concentration, cell line used for influenza virus; settings: PR8 (influenza virus) section
[5] = tested on: influenza virus A/Puerto Rico/8/34 (H1N1)
[6] = Group 3: Arbidol 130 mg/kg intragastrically once a day, therapeutic
[7] = Group 3: Arbidol 130 mg/kg intragastrically once a day, therapeutic, 30 animals
[8] = Group 2: Ingavirin 15 mg/kg intragastrically once a day, therapeutic
[9] = Group 2: Ingavirin 15 mg/kg intragastrically once a day, therapeutic, 30 animals

mu receptors, sequence (P35372 whole entry): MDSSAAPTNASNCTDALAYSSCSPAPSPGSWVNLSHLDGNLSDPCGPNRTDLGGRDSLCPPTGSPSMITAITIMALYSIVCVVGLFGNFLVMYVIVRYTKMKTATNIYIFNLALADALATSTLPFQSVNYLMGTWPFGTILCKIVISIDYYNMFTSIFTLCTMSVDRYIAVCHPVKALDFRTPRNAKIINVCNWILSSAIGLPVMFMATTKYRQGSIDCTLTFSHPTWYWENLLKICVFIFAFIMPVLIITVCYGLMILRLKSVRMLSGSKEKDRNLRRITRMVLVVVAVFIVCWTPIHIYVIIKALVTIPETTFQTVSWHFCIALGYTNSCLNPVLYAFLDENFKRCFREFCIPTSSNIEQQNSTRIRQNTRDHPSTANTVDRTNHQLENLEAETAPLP

## Nc1nc2c(ncn2COCCO)c(=O)[nH]1 [Aciclovir]
Human adenovirus 5 [1]; CC50/IC50, Ad5 (adenovirus)
  SI: 1
Human adenovirus 5 [1]; adenovirus, Vero
  Antiviral properties (in words): did not exhibit antiviral properties
In vitro
  CC50: > 30 µg/mL
Human adenovirus 5 [2]
  IC50: > 30 µg/mL

## CCOC(=O)C1=C[C@@H](OC(CC)CC)[C@H](NC(C)=O)[C@@H](N)C1 [Tamiflu, oseltamivir]
[3]
  Mortality, %: 10.00%
  Protective index, %: 88.46%
[3]; 30 animals
  Mortality by day 9: 2
  Mortality by day 10: 1
  Residue: 27*

## CCOC(=O)c1c(CSc2ccccc2)n(C)c2cc(Br)c(O)c(CN(C)C)c12 [Arbidol]
[4]; [6]
  Mortality, %: 70.00%
  Protective index, %: 27.59%
[4]; [7]
  Mortality by day 5: 2
  Mortality by day 6: 2
  Mortality by day 7: 7
  Mortality by day 8: 5
  Mortality by day 9: 3
  Mortality by day 10: 2
  Residue: 9

## Tyr-D-Ala-Gly-Phe
Mu receptors
  Affinity to mu receptors: exhibits affinity to mu receptors

## O=C(O)CCCC(=O)NCCc1c[nH]cn1 [Ingavirin]
[4]; [8]
  Mortality, %: 53.33%
  Protective index, %: 44.83%
[4]; [9]
  Mortality by day 6: 4
  Mortality by day 7: 6
  Mortality by day 8: 3
  Mortality by day 9: 2
  Mortality by day 10: 1
  Residue: 14
[4]; mouse, in vivo
  Mortality by day 5: 3
  Mortality by day 6: 4
  Mortality by day 7: 4
  Mortality by day 8: 7
  Mortality by day 9: 4
  Mortality by day 10: 2
  Mortality, %: 80.00%
  Protective index, %: 17.24%
  Residue: 6

## CC(N)C12CC3CC(CC(C3)C1)C2 (stereo not shown) [Remantadin]
MDCK
  CC50: 64 µg/mL (≈ 357 µM)
[5]; CC50/IC50, PR8 (influenza virus)
  SI: 5
[5]; PR8 (influenza virus), MDCK
  IC50: 11 µg/mL (≈ 61.3 µM)
[5]; influenza virus, MDCK
  Antiviral properties (in words): did not exhibit antiviral properties
